Laboratory results from patent publication US10434112B2, “Use of agonists of formyl peptide receptor 2 for treating dermatological diseases” (Allergan, Inc., priority 2013, dated 2019).

Biological target: human FPR2 receptor (Homo sapiens (Human), UniProt P25090)
Assay: FLIPR Ca+2 response in HEK-Gα16 cells stably expressing the human FPR2 receptor
Assay type: cell-based
Parameters: FPR2 (% eff): unit not given here
Conditions: Table 4; for FPR2 (% eff): value in brackets, given mostly as fraction
Method: FLIPR: HEK-Gα16 cells stably expressing the human FPR2 receptor was utilized. Cells were plated into 384-well poly-D-lysine coated plates at a density of 18,000 cells per well one day prior to use. The growth media was DMEM medium supplemented with 10% fetal bovine serum (FBS), 1% antibiotic-antimycotic, 50 μg/ml hygromycin, and 400 μg/ml geneticin. On the day of the experiment, the cells were washed twice with Hank's Balanced Salt Solution supplemented with 20 mM HEPES (HBSS/hepes buffer). The cells were then dye loaded with 2 μM Fluo-4 diluted in the HBSS/Hepes buffer and incubated at 37° C. for 40 minutes. Extracellular dye was removed by washing the cell plates four times prior to placing the plates in the FLIPR (Fluorometric Imaging Plate Reader, Molecular Devices). Ligands were diluted in HBSS/Hepes buffer and prepared in 384-well microplates. Data for Ca^+2 responses were obtained in relative fluorescence units.

Sequence of human FPR2 receptor (P25090 whole entry): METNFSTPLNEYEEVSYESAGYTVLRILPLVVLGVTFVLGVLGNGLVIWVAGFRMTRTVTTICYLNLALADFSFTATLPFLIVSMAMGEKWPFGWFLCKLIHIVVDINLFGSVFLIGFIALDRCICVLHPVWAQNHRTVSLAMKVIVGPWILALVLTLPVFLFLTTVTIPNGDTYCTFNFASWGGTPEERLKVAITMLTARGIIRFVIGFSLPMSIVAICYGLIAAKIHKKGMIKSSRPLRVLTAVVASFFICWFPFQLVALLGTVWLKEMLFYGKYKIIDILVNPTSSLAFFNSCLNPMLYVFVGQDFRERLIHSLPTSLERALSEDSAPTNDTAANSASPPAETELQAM

SMILES | FPR2 (% eff) | EC50
O=C(O)[C@@H]1C2CCC([C@@H]1C(=O)Nc1ccc(Br)cc1)C21CC1 (relative stereo) [Compound 14, rel-(2R,3S)-3-[(4-bromophenyl)carbamoyl]spiro [bicyclo[2.2.1]heptane-7,1′-cyclopropane]-2-carboxylic acid] | 0.90 | –
O=C(Nc1ccc(Br)cc1)[C@@H]1C2CCC([C@@H]1C(=O)O)C21CC1 (single isomer, unassigned) [Compound 44] | 0.98 | < 1 nM
NC(=O)C1C(C(=O)Nc2ccc(Br)cc2)C2CCC1C21CC1 (single isomer, unassigned; (-)) [Compound 45, (−) N-(4-bromophenyl)spiro[bicyclo [2.2.1]heptane-7,1′-cyclopropane]-2,3-dicarboxamide] | 0.91 | < 1 nM
O=C(O)CNC(=O)[C@H](Cc1c[nH]c2ccccc12)NC(=O)Nc1ccc(Br)cc1 (stereo in doubt) [Compound 150, {[2-{[(4-bromophenyl)carbamoyl]amino}-3-(1H-indol-3-yl)propanoyl]amino}acetic acid] | 98 | 1.4 nM
CCC1(CCc2ccccc2)NC(=O)N(NC(=O)Nc2ccc(Br)cc2)C1=O (centres unmarked) [Compound 1, 1-(4-bromophenyl)-3-[4-ethyl-2,5-dioxo-4-(2-phenylethyl)imidazolidin-1-yl]urea] | 0.96 | –
CCC[C@H](NC(=O)Nc1ccc(Br)cc1)C(=O)NCC(=O)O [Compound 2, {[(2S)-2-{[(4-bromophenyl)carbamoyl]amino}pentanoyl]amino}acetic acid] | 0.91 | –
CC[C@H](C)[C@H](NC(=O)Nc1ccc(Br)cc1F)C(=O)O [Compound 5, (2S,3S)-2-{[(4-bromo-2-fluorophenyl)carbamoyl]amino}-3-methylpentanoic acid] | 0.96 | –
CC(C)C[C@H](NC(=O)Nc1ccc(Br)cc1)C(=O)NC(C)(C)C(=O)O [Compound 6, 2-{[(2S)-2-{[(4-bromophenyl)carbamoyl]amino}-4-methylpentanoyl]amino}-2-methylpropanoic acid] | 0.91 | –
CC(C)C[C@H](NC(=O)Nc1ccc(Br)cc1)C(=O)O [Compound 9, (2S)-2-{[(4-bromophenyl)carbamoyl]amino}-4-methylpentanoic acid] | 0.77 | –
O=C(Nc1ccc(Br)cc1)NC(Cc1ccccc1)C(=O)NC1CCCCNC1=O (centres unmarked) [Compound 10, 2-{[(4-bromophenyl)carbamoyl]amino}-N-(2-oxoazepan-3-yl)-3-phenylpropanamide] | 0.89 | –
O=C(O)C1C(C(=O)Nc2ccc(I)cc2)C2C=CC1C21CC1 (centres unmarked) [Compound 11, 3-[(4-iodophenyl)carbamoyl]spiro [bicyclo[2.2.1]heptane-7,1′-cyclopropane]-5-ene-2-carboxylic acid] | 1.00 | –
O=C(O)C1C(C(=O)Nc2ccc(Br)cc2)C2C=CC1C21CC1 (centres unmarked) [Compound 12, 3-[(4-bromophenyl)carbamoyl]spiro [bicyclo[2.2.1]heptane-7,1′-cyclopropane]-5-ene-2-carboxylic acid] | 0.97 | –
CC(=O)c1ccc(NC(=O)Nc2ccc3c(c2)C(=O)N(CCc2c[nH]cn2)C(c2ccc(C#N)cc2)C3)cc1 (centres unmarked) [Compound 13, 1-(4-acetylphenyl)-3-{3-(4-cyanophenyl)-2-[2-(1H-imidazol-4-yl)ethyl]-1-oxo-1,2,3,4-tetrahydroisoquinolin-7-yl}urea] | 0.80 | –
O=C(O)C1C(C(=O)Nc2ccc(I)cc2)C2CCC1C21CC1 (centres unmarked) [Compound 15, 3-[(4-iodophenyl)carbamoyl]spiro [bicyclo[2.2.1]heptane-7,1′-cyclopropane]-2-carboxylic acid] | 0.87 | –
